Experimental data from paper PMC9323733, “Efficacy of Vafidemstat in Experimental Autoimmune Encephalomyelitis Highlights the KDM1A/RCOR1/HDAC Epigenetic Axis in Multiple Sclerosis” (Pharmaceutics, 2022).

What was measured:
[1] = Drug exposure in male and female animals; type: in vivo; details: mice and rats
Excerpt: Sex and Gender in this Research
Multiple sclerosis (MS) is more prevalent in women than men, but male patients develop more severe clinical symptoms and deteriorate faster than female patients. With respect to the animal models for MS used in this research, t he following aspects were considered: […]
and rats, which were not deemed relevant for this research. Previous efficacy studies in the […]
animals usedand perfo rm separate studies for male an female mice in MS models.
MOG35-55 induced EAE in C57BL/6 mice:
No differences have been observed in disease incidence or severity between sexes in MOG35-55 induced EAE in C57BL/6 mice in a study by Papenfuss et al. (J Neuroimmunol, 2004;150(1-2):59-69, therefore it was not deemed justified to increase the number of animals used in the studies to study males and females independently in the experiments reported in this […]
Although a higher incidence and severity has been reported for male than female SJL mice in the TMEV model (Alley et al. Exp Neurol, 2003 Mar;180(1):14-24), females are used in mo st studies because the strain of SJL male mice are very aggressive and display a high level of dominance and inflict wounds to their housemates. […]
Hypothetical sexual dimorphism in spinal cord organotypic cultures and chr onic excitotoxicity treatment derived from 8 day old Sprague-Dawley male or female pups was not assessed. […]

[2] = system: SJL/J mice infected with TMEV; assay: Theiler's murine encephalomyelitis virus (TMEV) model; type: in vivo, mouse
Procedure: Susceptible SJL/J mice (6 weeks old), previously anesthetized with isoflurane, were inoculated in the cerebral parenchyma with 2 × 10^6 plaque forming units (pfu) of the Daniel’s strain of TMEV, diluted in 30 μL of Dulbecco’s Modified Eagle Medium (DMEM) supplemented with 5% fetal bovine serum (FBS). The injection takes place in the right hemisphere of the cerebral cortex using a Hamilton syringe coupled to a pipette tip in such a way that it allows for an exposure of the needle of about 2–3 mm; thus, the virus is always injected at the same depth. Sham animals are subjected to the same protocol, but they only received 30 µL of DMEM supplemented with 5% fetal bovine serum. […] Control mice were treated with vehicle [2% v/v Tween-80 + 98% HPβCD (13% w/v)] following the same administration regime (Figure 4a). The animals were weighed every week from the onset of infection and clinical signs were evaluated using the criterion described by Moses Rodriguez (Mayo Clinic), source of the Daniel’s strain of TMEV to assess the severity of the disease by the general appearance: Score 1 = Shaggy and scruffy hair; 2 = scruffy appearance and hunched back; 3 = no spontaneous movement, reduced induced activity; and Gait: Score 1 = mild ataxia with inconsistent waddling gait; 2 = moderate ataxia with consistent waddling gait; 3 = severe ataxia with reduced righting response; 4 = spastic paresis of hind legs. The score of the animals and motor behavior were analyzed by trained observers blind to treatment and experimental groups.
The screening for locomotor activity was performed by analyzing spontaneous motor activity using an Activity Cage (Activity Monitor System Omnitech Electronics, Inc., Columbus, OH, USA) and by evaluating the mice performance in the Rotarod test. The activity cage consists of a four-compartment metacrylate cage, surrounded by sensors in such a way that it registers the movements of the mouse in both vertical and horizontal position and ambulation. The test consists of introducing the mice into two compartments of the cage placed diagonally so as not to interfere with the sensors of the other mouse. During two five-minute cycles (0–5 min, 5–10 min), horizontal activity (HACTV) or vertical activity (VACTV) are recorded. The first cycle evaluates the spontaneous activity in a new environment and the second measures the activity of the animal once habituated to the new environment. This task was performed on days 60, 70, 78, and 86 post-infection. The rotarod (Ugo Basile, Milan, Italia) consists of a rotating cylinder (roll) suspended above a cage floor turning at a constant speed or acceleration. The system is completed with a stopwatch for each compartment that stops when the mouse falls from the roll to a lever on the bottom of the device. One week prior to the test, mice were trained and familiarized with the test for one minute at a constant speed. The length of time that mice stay on the rotating roll is a measure of their balance and motor coordination. The test consists of measuring the time that mice remain on the roll with constant acceleration for a maximum time of five minutes. Mice that developed strategies to stay on the roll (p.e. seeking support on the wall) were excluded from evaluation. The rotarod test was performed on day 72, 78, and 86 post-infection.
Cervical and lumbar spinal cord segments of spinal cords obtained from EAE mice sacrificed on day 17 or 26 post-immunization were divided and processed for inclusion and sectioning in paraffin and for inclusion in an optimal cutting temperature (OCT) compound and future cryosectioning of the samples. Spinal cord segments were immediately fixed with buffered 10% formalin for 48 h, dehydrated and included in paraffin using standard techniques. […]

Nc1nnc(CN[C@@H]2C[C@H]2c2ccc(OCc3ccccc3)cc2)o1 [ORY-2001]
difference of exposure between male and female animals [1]: Minor differences | CD4 and CD8 lymphocytes in spinal cord parenchyma ([2]; p.o. 0.3 and 1.0 mg/kg): decreased the accumulation of CD4 and CD8 lymphocytes into the parenchyma | body weight ([2]; p.o. 0.3 and 1.0 mg/kg): did not produce any body weight changes | horizontal activity (activity cage) ([2]; p.o. 0.3 and 1.0 mg/kg): significantly improved the motor activity in the horizontal activity | infiltration of immune cells into the spinal cord ([2]; p.o. 0.3 and 1.0 mg/kg): diminished after ORY-2001 treatment | other motor deficits (vertical activity, rotarod) ([2]; p.o. 0.3 and 1.0 mg/kg): partially reduced other motor deficits | clinical score ([2]; p.o. 0.3 and 1.0 mg/kg, days 72-76 and 79-83 post-infection): reduced the clinical score | astroglial activation ([2]; spinal cord): partially limited astroglial activation | axon integrity ([2]; spinal cord): increased axon integrity | microglial activation (AIF-1 positive cells) ([2]; spinal cord): significantly reduced microglial activation
